# Experimental data taken from BindingDB's records for PubMed 7651361 (Georgetown University, 1995).
# Where “and” joins values, the source holds several entries; their conditions need not be identical. Equal values may be shown once.
# Molecular target: Nicotinic acetylcholine receptor (Rattus leucopus, UniProt Q62594)
# Sequence (Q62594 whole entry): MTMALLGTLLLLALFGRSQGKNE
row,SMILES,Ki
1,C[N+](C)(C)CCCCCC[N+](C)(C)C [Hexamethoniumdibromide],> 10 µM
2,COc1cc2c3cc1Oc1cc(ccc1O)CC1c4c(cc(OC)c(O)c4Oc4ccc(cc4)CC3[N+](C)(C)CC2)CC[N+]1(C)C (stereo not drawn) [CAS_8063-06-7],4.5 µM and 2.03 µM
3,CN1[C@@H]2CC[C@H]1CC(OC(=O)[C@H](CO)c1ccccc1)C2 (stereo partly drawn) [CAS_51-55-8],> 10 µM
